Measured values as given in ChEMBL document CHEMBL1134375, “Synthesis of 2-amino-5-sulfanyl-1,3,4-thiadiazole derivatives and evaluation of their antidepressant and anxiolytic activity” (2001).
The source made the active and inactive calls. The rule behind the calls is not given here.

Experiments:
[1] = species: Mus musculus; assay: Maximum percentage decrease in immobility time was determined by despair test in Male albino Swiss mice; NE=no effect; type: functional
[2] = Maximum percentage decrease in immobility time was determined by despair test at a dose of 10 mg/kg in Male albino Swiss mice; type: functional, Mus musculus
[3] = Percentage decrease in motor activity after intraperitoneal administration of a dose of 300 mg/kg in Male albino Swiss mice; type: functional, Mus musculus
[4] = Percentage decrease in motor activity after intraperitoneal administration of a dose of 400 mg/kg in Male albino Swiss mice; type: functional, Mus musculus
[5] = Percentage decrease in motor activity after intraperitoneal administration of a dose of 500 mg/kg in Male albino Swiss mice; type: functional, Mus musculus
[6] = Percentage decrease in motor activity after intraperitoneal administration of a dose of 600 mg/kg in Male albino Swiss mice; type: functional, Mus musculus
[7] = test system: Rattus norvegicus; assay: Amnesia inducing potential (S1 latency) was determined by passive avoidance test in rat 0.5 mg/kg dose; type: functional
[8] = test system: Rattus norvegicus; assay: Amnesia inducing potential (S1 latency) was determined by passive avoidance test in rat at 0 mg/kg dose; type: functional
[9] = test system: Rattus norvegicus; assay: Amnesia inducing potential (S1 latency) was determined by passive avoidance test in rat at 2 mg/kg dose; type: functional
[10] = test system: Rattus norvegicus; assay: Amnesia inducing potential (S1 latency) was determined by passive avoidance test in ratat 1 mg/kg dose; type: functional
[11] = test system: Rattus norvegicus; assay: Amnesia inducing potential (S2 latency) was determined by passive avoidance test in rat at 0.5 mg/kg dose; type: functional
[12] = test system: Rattus norvegicus; assay: Amnesia inducing potential (S2 latency) was determined by passive avoidance test in rat at 1 mg/kg dose; type: functional
[13] = test system: Rattus norvegicus; assay: Amnesia inducing potential (S2 latency) was determined by passive avoidance test in rat at 2 mg/kg dose; type: functional
[14] = test system: Rattus norvegicus; assay: Amnesia inducing potential (S2 latency) was determined by passive avoidance test in ratin rat at 0 mg/kg dose; type: functional
[15] = test system: Mus musculus; assay: Ethanol potentiation in mice (intraperitoneal administration); details: ip
[16] = test system: Mus musculus; assay: Effective dose determined by rotarod test in mice (intraperitoneal administration); details: ip
[17] = Maximum percentage decrease in immobility time was determined by despair test at a dose of 0.5 mg/kg in Male albino Swiss mice; type: functional, Mus musculus
[18] = Maximum percentage decrease in immobility time was determined by despair test at a dose of 0.1 mg/kg in Male albino Swiss mice; type: functional, Mus musculus
[19] = Maximum percentage decrease in immobility time was determined by despair test at a dose of 0.25 mg/kg in Male albino Swiss mice; type: functional, Mus musculus
[20] = Maximum percentage decrease in immobility time was determined by despair test at a dose of 50 mg/kg in Male albino Swiss mice; type: functional, Mus musculus
[21] = test system: Rattus norvegicus; assay: Percentage decrease in immobility time, after acute administration (intraperitoneally) in rat dosed at 20 mg/kg; type: functional; details: route intraperitoneal
[22] = test system: Rattus norvegicus; assay: Percentage decrease in immobility time, after subchronic administration (intraperitoneally) in rat dosed at 20 mg/kg; type: functional; details: route intraperitoneal
[23] = Maximum percentage decrease in immobility time was determined by despair test at a dose of 1 mg/kg in Male albino Swiss mice; type: functional, Mus musculus
[24] = Maximum percentage decrease in immobility time was determined by despair test at a dose of 0.3 mg/kg in Male albino Swiss mice; type: functional, Mus musculus
[25] = species: Mus musculus; assay: Maximum percentage decrease in immobility time in mice, determined by despair test; NE=no effect; type: functional
[26] = test system: Rattus norvegicus; assay: Maximum percentage decrease in immobility time was determined after acute intraperitoneal administration of a dose of 10 mg/kg in rat; type: functional
[27] = test system: Rattus norvegicus; assay: Maximum percentage decrease in immobility time was determined after acute intraperitoneal administration of a dose of 20 mg/kg in rat; type: functional
[28] = test system: Rattus norvegicus; assay: Maximum percentage decrease in immobility time was determined after subchronic administration of a dose of 1.25 mg/kg in rat; type: functional
[29] = test system: Rattus norvegicus; assay: Maximum percentage decrease in immobility time was determined after subchronic administration of a dose of 2.5 mg/kg in rat; type: functional
[30] = test system: Rattus norvegicus; assay: Maximum percentage decrease in immobility time was determined after subchronic administration of a dose of 5 mg/kg in rat; type: functional
[31] = test system: Rattus norvegicus; assay: Maximum percentage decrease in immobility time was determined after acute intraperitoneal administration of a dose of 5 mg/kg in rat; type: functional
[32] = Maximum percentage decrease in immobility time was determined by despair test at a dose of 0.06 mg/kg in Male albino Swiss mice; type: functional, Mus musculus
[33] = Maximum percentage decrease in immobility time was determined by despair test at a dose of 5 mg/kg in Male albino Swiss mice; type: functional, Mus musculus

With Nc1nnc(SCc2cccc(Cl)c2)s1 as the molecule, how does the “Maximum percentage decrease in immobility time” value (shortened to “Maximum percentage decrease”) [1] read?
The value was “inactive”.

With CC(=O)Nc1nnc(SCc2cccc([N+](=O)[O-])c2)s1 as the molecule, how does the “Maximum percentage decrease” value [1] read?
The value was “inactive”.

With CCCCCCC(=O)Nc1nnc(SCc2ccccc2)s1 as the molecule, how does the “Maximum percentage decrease” value [1] read?
Its value is “inactive”.

For CSc1nnc(N(C)C(C)=O)s1, which “Maximum percentage decrease” value [1] is on record?
Its value is “inactive”.

For COc1cccc(CSc2nnc(N)s2)c1, which Decrease [2] is on record?
Its Decrease is 21%.

What about the Decrease [3] of the same molecule?
Its Decrease is 19%.

What about the Decrease [4] of the same molecule?
The Decrease was <26%.

What about the Decrease [5] of the same molecule?
The Decrease was <46%.

And the Decrease [6]?
Its Decrease is <68%.

What about the Activity [7] of the same molecule?
The Activity was 4.7.

And the Activity [8]?
The Activity was 5.6.

And the Activity [9]?
The Activity was 7.2.

What about the Activity [10] of the same molecule?
The Activity was 5.6.

And the Activity [11]?
The Activity was 146.

And the Activity [12]?
Its Activity is 135.

And the Activity [13]?
Its Activity is 180.

And the Activity [14]?
The Activity was 166.

What about the ED50 [15] of the same molecule?
Its ED50 is 162 mg/kg.

And the ED50 [16]?
Its ED50 is 534 mg/kg.

Which Decrease [17] does the source give for COc1ccc(CSc2nnc(NC(C)=O)s2)cc1 here?
Its Decrease is 10%.

Which Decrease [18] does the source give for COc1cc(CSc2nnc(NC(C)=O)s2)cc(OC)c1OC here?
The Decrease was 14%.

For COc1cccc(CSc2nnc(NC(C)=O)s2)c1, which “Maximum percentage decrease” value [1] is on record?
Its value is “inactive”.

For CC(=O)Nc1nnc(SCc2cccc(Cl)c2)s1, which “Maximum percentage decrease” value [1] is on record?
The value was “inactive”.

For CC(=O)Nc1nnc(SCc2ccc(C)cc2)s1, which “Maximum percentage decrease” value [1] is on record?
The value was “inactive”.

With Nc1nnc(SCc2ccc(Cl)cc2)s1 as the molecule, how does the Decrease [18] read?
Its Decrease is 15%.

For CC(=O)N(C)c1nnc(SC(C)C)s1, which Decrease [19] is on record?
The Decrease was 17%.

For CCC(=O)Nc1nnc(SCc2ccccc2)s1, which “Maximum percentage decrease” value [1] is on record?
The value was “inactive”.

With Nc1nnc(SCc2cccc([N+](=O)[O-])c2)s1 as the molecule, how does the “Maximum percentage decrease” value [1] read?
Its value is “inactive”.

Which “Maximum percentage decrease” value [1] does the source give for O=C(Nc1nnc(SCc2ccccc2)s1)c1ccccc1 here?
Its value is “inactive”.

With CSc1nnc(N)s1 as the molecule, how does the Decrease [20] read?
The Decrease was 23%.

For CC(C)Sc1nnc(N)s1, which Decrease [2] is on record?
Its Decrease is 17%.

For CN(C)CCCN1c2ccccc2CCc2ccccc21 [IMIPRAMINE], which Decrease [21] is on record?
The Decrease was <45%.

And the Decrease [22]?
The Decrease was <56%.

With CC(=O)Nc1nnc(SC(C)C)s1 as the molecule, how does the Decrease [23] read?
The Decrease was 19%.

For COc1ccc(CSc2nnc(N)s2)cc1, which Decrease [24] is on record?
Its Decrease is 16%.

Which “Maximum percentage decrease” value [1] does the source give for CC(=O)Nc1nnc(SCc2ccc(Cl)cc2)s1 here?
The value was “inactive”.

With CC(=O)Nc1nnc(SCc2ccc([N+](=O)[O-])cc2)s1 as the molecule, how does the Decrease [19] read?
Its Decrease is 16%.

For CCCSc1nnc(N)s1, which NE [25] is on record?
Its NE is “inactive”.

Which NE [25] does the source give for Nc1nnc(SCc2ccc([N+](=O)[O-])cc2)s1 here?
Its NE is “inactive”.

Which results are given for Nc1nnc(SCc2ccccc2)s1?
Decrease [2]: 35%; Decrease [26]: 10%; Decrease [27]: <24%; Decrease [28]: <23%; Decrease [29]: <31%; Decrease [30]: <28%; Decrease [31]: <33%

Which Decrease [32] does the source give for CC(=O)Nc1nnc(SCc2ccccc2)s1 here?
The Decrease was 22%.

For COc1cc(CSc2nnc(N)s2)cc(OC)c1OC, which “Maximum percentage decrease” value [1] is on record?
Its value is “inactive”.

With Cc1ccc(CSc2nnc(N)s2)cc1 as the molecule, how does the “Maximum percentage decrease” value [1] read?
Its value is “inactive”.

With Cc1cccc(CSc2nnc(N)s2)c1 as the molecule, how does the Decrease [33] read?
Its Decrease is 17%.
